Test results published in patent US20020107281A1, “Phototherapeutic and chemotherapeutic immunotherapy against tumors” (Photogen, Inc., priority 2000, published 2002).

Key:
[1] = tested on: multiple superficial mast cell tumors; test: Intra-lesional Rose Bengal chemotherapy in a dog with mast cell tumors (Example 7); format: in vivo
Method: This chemotherapeutic and immunologic anti-tumoral effect for the prototypical halogenated xanthene, Rose Bengal, is illustrated by the following example which is not intended to limit the present invention. An adult, female dog with multiple superficial mast cell tumors was treated by injection of several cc of a 10% solution of Rose Bengal into each of several tumors (approximately one third of the total tumors were treated in this manner). […] Such a response in the treated tumors is consistent with the expected chemotherapeutic modality of the injected Rose Bengal, while the noted decrease in non-treated tumors represents an ongoing immune assault upon remaining remote tumor tissues.

subcutaneous RAG tumors [2] = test: Intra-lesional Rose Bengal chemotherapy of RAG tumors, immune competent mice (Example 8); format: in vivo, C57BL/6 mice; details: 10% solution intra-lesionally
From the text: (§1) The immunologic basis for phototherapy-induced immunity is further illustrated by the following example which is not intended to limit the present invention. As an additional control, immune incompetent mice were implanted with subcutaneous tumors, treated using phototherapy, then challenged with a second dose of tumor cells. Since they are immune incompetent, the inventors believed that such mice would respond to phototherapy but fail to develop immunity to tumor cells. […] The rate of tumor development from such implantation was approximately 50% (14/28 mice developed tumors within five weeks of injection). The tumors were treated using intra-lesionally-injected Rose Bengal and green light photoactivation (1% Rose Bengal administered intra-lesionally at approximately 1 cc/cm^3 tumor volume, then illuminated 24 hours post administration using 532 nm laser light at 100 J/cm^2, 200 mW/cm^2).
(§2) The chemotherapeutic and immunologic anti-tumoral effect for the prototypical halogenated xanthene, Rose Bengal, is further illustrated by the following example which is not intended to limit the present invention. Immune competent mice (C57BL/6 mice) and immune incompetent mice (BALB/C athymic nude mice) were implanted with subcutaneous RAG tumors, as previously described in Example 4. […]

[3] = tested on: renal adenocarcinoma (RAG) tumors; test: Rose Bengal PDT of RAG tumors in nude mice, then tumor cell rechallenge (Example 4); format: in vivo, BALB/C athymic nude mice
From the text: as §1

[4] = tested on: recurrent malignant fibrous histocytoma; test: Rose Bengal injection plus 60Co irradiation of a dog's tumor (Example 1); format: in vivo
Method: This anti-tumoral effect for the prototypical halogenated xanthene, Rose Bengal, is illustrated by the following example which is not intended to limit the present invention. An adult, female dog with a recurrent malignant fibrous histocytoma (an undifferentiated tumor that could be considered to be a poorly differentiated mesenchymal tumor), approximately 20 cc in volume, was treated by injection of approximately 7 cc of a 10% solution of Rose Bengal at several locations throughout the tumor volume. After a period of five days, an irradiation regimen consisting of 5 daily fractions (2 Gy each) of radiation from a ^60Co source was begun in order to effect phototherapy of the tumor. […] Such a response at 5 days is consistent with a chemotherapeutic modality of the injected Rose Bengal, while continued decrease in tumor mass at 19 days is consistent with a phototherapeutic modality related to tumor irradiation. […] This continued tumor regression is consistent with ongoing immune assault upon remaining tumor tissue.

subcutaneous RAG tumors [5] = test: Intra-lesional Rose Bengal chemotherapy of RAG tumors, immune incompetent mice (Example 8); format: in vivo, BALB/C athymic nude mice; details: 10% solution intra-lesionally
From the text: as §1, §2

[6] = tested on: Murine hepatoma tumor cells (ATCC CRL-1830 Hepa 1-6); test: Rose Bengal PDT of left-flank tumor in mice with bilateral hepatoma tumors (Example 5); format: in vivo, C57BL/6 mice
Method: The immunologic basis for phototherapy-induced immunity is further illustrated by the following example which is not intended to limit the present invention. Murine hepatoma tumor cells (10^6 cells, ATCC CRL-1830 Hepa 1-6) were injected subcutaneously into the left flank of immunocompetent mice (C57BL/6). Concurrent with this implantation, a smaller implantation was performed by injecting 5×10^5 tumor cells into the right flank of these mice. Tumors presented in both flanks within approximately 5-6 days of implantation. One group of mice were otherwise untreated and served as controls. […] A second group received illumination of the left-flank tumor with green light (532 nm laser light at 100 J/cm^2, 200 mW/cm^2). […] A third group received intra-lesional injection of the left-flank tumor with 50 μL of a 10% Rose Bengal solution (the right-flank tumor was not treated); the injected tumor was then illuminated 24 hours post drug administration using 532 nm laser light.

With `O=C([O-])c1c(Cl)c(Cl)c(Cl)c(Cl)c1-c1c2cc(I)c(=O)c(I)c-2oc2c(I)c([O-])c(I)cc12.[Na+].[Na+]` [Rose Bengal] the “side-effects in healthy tissue surrounding the treated tumors” value ([1]; all follow-up intervals) was “no significant side-effects in healthy tissue surrounding the treated tumors”, the systemic side effects ([1]; all follow-up intervals) was “nor any evidence of significant systemic side effects” and the “size of mast cell tumors, both treated and non-treated” value ([1]; several cc of 10% solution into approximately one third of the tumors, over subsequent three month period, no light) was “marked and progressive reduction in size”. The “immediate effect of chemotherapeutic treatment on tumor” value (subcutaneous RAG tumors [2]; approximately 1 cc/cm^3 tumor volume, immune competent mice) was “immediate tumor necrosis”, the cure rate (subcutaneous RAG tumors [2]; immune competent mice (6/6 mice treated), upon follow-up) was 100% and the “effect of phototherapy on treated lesions” value ([3]; 1% Rose Bengal intra-lesionally, approximately 1 cc/cm^3 tumor volume, 532 nm laser light 100 J/cm^2 24 hours post administration) was “selective acute necrosis of treated lesions”. The “tumor development after challenge with second injection of RAG tumor cells” value ([3]; seven complete responders, 10^4 tumor cells to opposite flank, five weeks following challenge (3/7 mice)) was “approximately 50%”, the “tumor mass at follow-up” value ([4]; 12 weeks post injection) was “significant further reduction in tumor mass” and the “tumor size after irradiation” value ([4]; 19 days post injection, after 5 daily fractions (2 Gy each) 60Co) was “further measurable decrease in tumor size”. The “side-effects in healthy tissue surrounding the tumor” value ([4]; all follow-up intervals) was “no significant side-effects in healthy tissue surrounding the tumor”, the “tumor response before irradiation” value ([4]; approximately 7 cc of 10% solution injected into tumor, five days post injection, immediately prior to irradiation) was “measurable decrease in tumor density along with significant edema and apparent necrosis of large sections of the tumor” and the “final histologic examination for viable tumor tissue” value ([4]; approximately 12 months post-treatment) was “no evidence of viable tumor tissue was observed”. For the same compound, the “immediate effect of chemotherapeutic treatment on tumor” value (subcutaneous RAG tumors [5]; approximately 1 cc/cm^3 tumor volume, immune incompetent mice) was “immediate tumor necrosis”, the cure rate (subcutaneous RAG tumors [5]; immune incompetent mice (0/4 mice treated), upon follow-up) was 0% and the “eradication of the treated left-flank tumor” value ([6]; 50 μL of 10% Rose Bengal solution intra-lesionally, 532 nm laser light 24 hours post administration) was 5/5. The “spontaneous rejection of the untreated right-flank tumor” value ([6]; left-flank tumor treated with 10% Rose Bengal and 532 nm light, right-flank tumor not treated) was 5/5.
